Experimental data reported in ChEMBL document CHEMBL5291721, “A preclinical secondary pharmacology resource illuminates target-adverse drug reaction associations of marketed drugs” (Nat Commun, 2023).

Tests used:
[1] = target: T1, Corticotropin-releasing factor receptor 2 (Homo sapiens, UniProt Q13324)
T1 sequence (Q13324 whole entry): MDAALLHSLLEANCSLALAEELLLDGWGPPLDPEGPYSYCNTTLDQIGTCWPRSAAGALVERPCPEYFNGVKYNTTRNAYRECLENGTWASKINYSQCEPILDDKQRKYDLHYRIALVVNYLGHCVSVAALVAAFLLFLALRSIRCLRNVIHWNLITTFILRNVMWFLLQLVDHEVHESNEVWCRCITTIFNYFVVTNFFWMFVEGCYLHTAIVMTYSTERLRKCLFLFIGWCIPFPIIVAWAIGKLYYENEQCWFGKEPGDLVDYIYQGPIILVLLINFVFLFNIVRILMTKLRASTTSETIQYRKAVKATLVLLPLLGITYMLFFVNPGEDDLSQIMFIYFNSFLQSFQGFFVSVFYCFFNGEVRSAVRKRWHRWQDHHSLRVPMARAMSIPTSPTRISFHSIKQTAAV

[2] = target: T2, Peroxisome proliferator-activated receptor gamma (Homo sapiens, UniProt P37231); assay type: functional
T2 sequence (P37231 whole entry): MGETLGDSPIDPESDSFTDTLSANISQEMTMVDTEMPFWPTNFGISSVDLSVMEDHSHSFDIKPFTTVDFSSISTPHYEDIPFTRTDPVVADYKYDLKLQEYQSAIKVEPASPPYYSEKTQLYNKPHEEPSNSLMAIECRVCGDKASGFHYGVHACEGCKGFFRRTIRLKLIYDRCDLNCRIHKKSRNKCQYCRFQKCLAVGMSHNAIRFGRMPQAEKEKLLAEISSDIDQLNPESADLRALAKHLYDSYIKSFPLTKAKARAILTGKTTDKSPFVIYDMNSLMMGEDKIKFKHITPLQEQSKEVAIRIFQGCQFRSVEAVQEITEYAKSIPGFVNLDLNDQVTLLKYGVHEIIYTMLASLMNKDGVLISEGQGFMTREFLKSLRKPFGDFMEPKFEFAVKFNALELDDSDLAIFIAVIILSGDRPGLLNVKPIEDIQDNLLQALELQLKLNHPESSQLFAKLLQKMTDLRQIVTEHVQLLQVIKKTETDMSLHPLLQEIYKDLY

[3] = target: T3, Alpha-2A adrenergic receptor (Homo sapiens, UniProt P08913)
T3 sequence (P08913 whole entry): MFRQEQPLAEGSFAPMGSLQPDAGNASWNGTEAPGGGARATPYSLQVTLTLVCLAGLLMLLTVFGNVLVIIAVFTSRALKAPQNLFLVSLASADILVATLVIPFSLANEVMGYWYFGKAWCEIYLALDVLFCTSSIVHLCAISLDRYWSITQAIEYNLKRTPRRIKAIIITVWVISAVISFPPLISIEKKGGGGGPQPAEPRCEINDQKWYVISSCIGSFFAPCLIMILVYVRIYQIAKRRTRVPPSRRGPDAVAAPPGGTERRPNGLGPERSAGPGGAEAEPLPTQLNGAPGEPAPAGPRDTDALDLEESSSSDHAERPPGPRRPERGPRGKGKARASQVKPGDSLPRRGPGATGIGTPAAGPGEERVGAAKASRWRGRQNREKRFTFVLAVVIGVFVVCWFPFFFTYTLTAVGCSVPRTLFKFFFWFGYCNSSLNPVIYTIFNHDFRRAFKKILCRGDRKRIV

[4] = target: Sodium-dependent dopamine transporter (Homo sapiens, UniProt Q01959)
Sequence of Sodium-dependent dopamine transporter (Q01959 whole entry): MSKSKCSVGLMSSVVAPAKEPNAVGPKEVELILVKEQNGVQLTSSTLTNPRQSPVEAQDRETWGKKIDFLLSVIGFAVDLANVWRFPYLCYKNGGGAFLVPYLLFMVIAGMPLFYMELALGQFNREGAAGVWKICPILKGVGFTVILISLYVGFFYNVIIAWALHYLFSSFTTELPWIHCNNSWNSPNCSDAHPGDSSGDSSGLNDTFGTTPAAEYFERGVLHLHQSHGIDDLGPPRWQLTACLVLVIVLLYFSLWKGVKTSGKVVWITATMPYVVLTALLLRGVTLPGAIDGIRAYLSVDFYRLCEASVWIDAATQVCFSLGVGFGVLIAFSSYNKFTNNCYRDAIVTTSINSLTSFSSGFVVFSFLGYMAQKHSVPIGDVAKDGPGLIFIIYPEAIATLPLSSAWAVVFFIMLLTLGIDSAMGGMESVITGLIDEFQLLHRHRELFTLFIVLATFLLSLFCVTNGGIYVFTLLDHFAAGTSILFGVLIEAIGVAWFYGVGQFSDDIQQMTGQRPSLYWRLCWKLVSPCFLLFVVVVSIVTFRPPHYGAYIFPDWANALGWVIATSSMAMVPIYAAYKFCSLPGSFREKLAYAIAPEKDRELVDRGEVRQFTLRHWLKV

[5] = target: T4, Alpha-1A adrenergic receptor (Homo sapiens, UniProt P35348); assay type: functional, cell-based
T4 sequence (P35348 whole entry): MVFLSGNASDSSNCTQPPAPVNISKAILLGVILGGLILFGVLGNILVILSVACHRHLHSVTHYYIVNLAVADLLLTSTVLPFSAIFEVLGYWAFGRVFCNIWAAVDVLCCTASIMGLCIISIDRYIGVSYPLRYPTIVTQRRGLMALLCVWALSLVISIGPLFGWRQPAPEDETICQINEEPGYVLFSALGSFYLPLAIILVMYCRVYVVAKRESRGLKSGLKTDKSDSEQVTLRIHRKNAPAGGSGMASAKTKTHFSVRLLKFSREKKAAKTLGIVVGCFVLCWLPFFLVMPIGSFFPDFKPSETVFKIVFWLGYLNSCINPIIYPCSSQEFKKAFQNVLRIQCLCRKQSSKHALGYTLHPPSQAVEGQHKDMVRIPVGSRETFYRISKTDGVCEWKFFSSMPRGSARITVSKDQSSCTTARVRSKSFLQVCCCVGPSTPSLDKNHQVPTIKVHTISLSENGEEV

[6] = target: T5, 5-hydroxytryptamine receptor 1A (Homo sapiens, UniProt P08908)
T5 sequence (P08908 whole entry): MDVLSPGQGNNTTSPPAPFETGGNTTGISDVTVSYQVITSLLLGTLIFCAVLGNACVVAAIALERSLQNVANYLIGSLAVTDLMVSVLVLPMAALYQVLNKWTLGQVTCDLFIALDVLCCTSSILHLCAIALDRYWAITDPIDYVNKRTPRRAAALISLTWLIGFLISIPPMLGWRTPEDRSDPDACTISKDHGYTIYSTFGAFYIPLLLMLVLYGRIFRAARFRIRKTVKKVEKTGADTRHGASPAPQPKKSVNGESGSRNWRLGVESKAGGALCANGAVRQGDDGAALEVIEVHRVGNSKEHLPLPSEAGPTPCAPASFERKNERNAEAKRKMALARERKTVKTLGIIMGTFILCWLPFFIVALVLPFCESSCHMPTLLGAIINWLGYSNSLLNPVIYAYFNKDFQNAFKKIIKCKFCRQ

Thromboxane A2 receptor = target: T6, Thromboxane A2 receptor (Homo sapiens, UniProt P21731); assay type: functional, cell-based
T6 sequence (P21731 whole entry): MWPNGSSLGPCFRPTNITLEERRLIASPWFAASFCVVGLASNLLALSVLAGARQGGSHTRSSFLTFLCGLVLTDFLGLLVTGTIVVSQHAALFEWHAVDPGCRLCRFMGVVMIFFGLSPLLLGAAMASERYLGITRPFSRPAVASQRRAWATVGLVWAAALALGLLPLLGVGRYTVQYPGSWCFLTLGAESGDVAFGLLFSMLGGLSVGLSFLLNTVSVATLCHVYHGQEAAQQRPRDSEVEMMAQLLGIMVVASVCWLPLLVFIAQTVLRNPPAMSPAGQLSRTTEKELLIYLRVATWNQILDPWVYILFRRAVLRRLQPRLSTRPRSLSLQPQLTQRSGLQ
Also: assay procedure not described here.

Structure (SMILES): CC(=O)OCC(=O)[C@@]1(O)[C@H](C)C[C@H]2[C@@H]3CCC4=CC(=O)C=C[C@]4(C)[C@@]3(F)[C@@H](O)C[C@@]21C [DEXAMETHASONE ACETATE]
- AC50 [1]: > 30 µM

Structure (SMILES): CCN1CCCC1CNC(=O)c1cc(S(=O)(=O)CC)c(N)cc1OC (centres undefined) [AMISULPRIDE]
- AC50 [2]: > 30 µM

Structure (SMILES): Cc1ncc2n1-c1ccc(Cl)cc1C(c1ccccc1F)=NC2 [MIDAZOLAM]
- AC50 [3]: > 10 µM

Structure (SMILES): Cn1c(=O)cc(N2CCC[C@@H](N)C2)n(Cc2ccccc2C#N)c1=O [ALOGLIPTIN]
- AC50 [1]: > 30 µM
- AC50 [3]: > 10 µM

Structure (SMILES): Oc1ccc2c(c1)[C@@]13CCCC[C@@]1(O)[C@@H](C2)N(CC1CCC1)CC3 [BUTORPHANOL]
- AC50 [2]: > 30 µM

Structure (SMILES): Nc1c2ccccc2nc2ccccc12 [AMINACRINE]
- AC50 [4]: > 30 µM
- AC50 [5]: 9.77 µM
- AC50 [6]: > 30 µM
- AC50 (Thromboxane A2 receptor): > 30 µM

Structure (SMILES): O=C(O)CCCCC1CCSS1 (stereo not drawn) [LIPOIC ACID, ALPHA]
- AC50 [4]: > 30 µM
- AC50 [5]: > 30 µM
- AC50 [6]: > 30 µM
- AC50 (Thromboxane A2 receptor): > 30 µM
